We go through 17 molecules from ChEMBL document CHEMBL1135960 (Bioorg Med Chem Lett, 2002).

Calls of active or inactive are those of the source. The calls are words filed in the database; no cut-off is given here.

Assay [1] concerns the target T1, Serotonin 3 (5-HT3) receptor (Homo sapiens) (UniProt P46098+A5X5Y0+O95264+Q70Z44+Q8WXA8). In words: Intrinsic activity towards CNS 5-hydroxytryptamine 3 receptor was determined; A: agonist. It is filed as functional. The following applies: filed as agonist.
In assay [2] the target is Serotonin 3 (5-HT3) receptor. Put plainly: Binding affinity towards 5-hydroxytryptamine 3 receptor. It is filed as protein-complex assay.
The target of assay [3] is T1, Serotonin 3 (5-HT3) receptor (Homo sapiens). Put plainly: Intrinsic activity towards 5-hydroxytryptamine 3 receptor was determined by Benzold-Jarisch reflex (peripheral assay); A: agonist. It is filed as functional. As to conditions: filed as agonist.
Assay [4] shares this target. In words: Intrinsic activity towards 5-hydroxytryptamine 3 receptor was determined by Benzold-Jarisch reflex (peripheral assay); ANT: antagonist. It is filed as functional. As to conditions: filed as antagonist.
The target is the same in assay [5]. In words: Intrinsic activity towards CNS 5-hydroxytryptamine 3 receptor was determined; NA: not active. It is filed as protein-complex assay.
Assay [6] has as its system Serotonin 3 (5-HT3) receptor. Put plainly: Binding affinity of compound towards 5-hydroxytryptamine 3 receptor; NA: not active. It is filed as protein-complex assay.
The target in assay [7] is T1, Serotonin 3 (5-HT3) receptor (Homo sapiens). Put plainly: Intrinsic activity towards CNS 5-hydroxytryptamine 3 receptor was determined; ANT: Antagonist. The following applies: filed as antagonist. It is filed as functional.
Assay [8] has the same target. Put plainly: Intrinsic activity towards 5-hydroxytryptamine 3 receptor was determined by Benzold-Jarisch reflex (peripheral assay); PA: Partial agonist. It is filed as functional. As to conditions: filed as partial agonist.

Usually Ki stands for the equilibrium dissociation constant of an inhibitor or competing ligand from its target. A low value points to higher affinity.

As for `CN1CCN(c2nc3ccccc3c3ccccc23)CC1`, the Intrinsic activity entry in assay [1] is “Agonist”. Besides, in assay [2], the affinity, expressed as Ki, was 1.9 nM.

`N=C(N)NC(=N)Nc1ccccc1`: the Intrinsic activity result in assay [3] and in assay [1] was “Agonist” throughout.

As to `Cc1[nH]c2ccc(O)cc2c1CCN`, the Intrinsic activity result in assay [3] and in assay [1] was “Agonist” throughout.

As for `CN1CCN(c2nc3ccccc3n3cccc23)CC1`, the Intrinsic activity result in assay [4] is “Antagonist”; in assay [1] it was “Agonist”. Further, in assay [2], affinity was put at a Ki of 0.23 nM.

For the molecule `O=[N+]([O-])c1ccc2nc(N3CCNCC3)ccc2c1` [6-NITROQUIPAZINE], the Intrinsic activity result in assay [4] is “Antagonist”. For the same molecule, the affinity in assay [2] corresponds to a Ki of 58 nM.

In the case of `CN1CCN(c2cc3cc(C(F)(F)F)ccc3n3cccc23)CC1`, in assay [4], the Intrinsic activity result was “Antagonist”. In addition, the Intrinsic activity result in assay [5] is “inactive”. Moreover, in assay [6], the Ki result is reported as “Not Active”.

In the case of `NC1CCN(c2cccc(Cl)n2)CC1`, in assay [1], the Intrinsic activity result is “Agonist”. In assay [2], this molecule returned a Ki of 103 nM.

`N=C(N)NC(=N)Nc1cccc(Cl)c1`: the Intrinsic activity result in assay [3] and in assay [1] was “Agonist” throughout.

For the molecule `CN1CCN(c2nc3ccccc3c3c2CC2CCC3C2)CC1` (stereo not drawn), the Intrinsic activity result in assay [7] was “Antagonist”. Further, the affinity in assay [2], expressed as Ki, was 0.83 nM.

In the case of `c1ccc2nc(N3CCNCC3)ccc2c1`, the results for the Intrinsic activity entry in assay [8] and in assay [1] were “Partial agonist” and “Agonist”, respectively.

`Clc1ccc2ccc(N3CCNCC3)nc2c1`: the Intrinsic activity result in assay [4] was “Antagonist”. Moreover, the affinity in assay [2], expressed as Ki, was 38 nM.

As to `CN1CCN(c2cc3cc(F)ccc3n3cccc23)CC1`, the Intrinsic activity result was “Antagonist” in assay [4] and “Agonist” in assay [1]. The molecule further gave a Ki in assay [2] of 0.51 nM.

Molecule `CN1CCN(c2nc3ccccc3c3c2CCCC3)CC1` returned a Ki in assay [2] of 0.23 nM.

For `N=C(N)Nc1cccc(Cl)c1`, the Intrinsic activity entry in assay [3] is “Agonist”.

As for `N=C(N)NC(=N)Nc1ccc2ccccc2c1`, the Intrinsic activity result in assay [3] was “Agonist”.

`NCCc1c[nH]c2ccc(O)cc12`: the Intrinsic activity entry in assay [3] and in assay [1] was “Agonist” each time.

As to `N=C(N)Nc1ccc2ccccc2c1`, the Intrinsic activity result in assay [3] was “Agonist”.
